# According to patent US20230233701A1 (priority 2020, published 2023):
# How the values were obtained:
# 2D2 CD4 T cells = test: 2D2 CD4 T-cell adoptive transfer and challenge; conditions: amount equimolar to the administered […]-MOG35-55 adduct
# [1] = test system: OVA protein and OB1 peptide; conditions: three consecutive injections, C57BL/6J
Substance,division of 2D2 T cells (2D2 CD4 T cells) [%],IgG antibody responses against OVA protein or OB1 peptide [1]
"MOG35-55: amino acids 35-55 of MOG, MEVGWYRSPFSRVVHLYRNGK (SEQ ID NO: 49) (UniProt Q61885 63-83, looked up, fragment)",≤ 5,
"OVA protein: free OVA (ovalbumin) protein, equimolar amounts",,readily produced such antibodies
